The source of these data is patent publication US5053336A, “Monoclonal antibodies for the separate detection of halodeoxyuridines and method for their use” (Regents of the University of California, priority 1989, dated 1991).

Bounds are passed on as bounds.

The assay addresses monoclonal antibody Br-3 (IgG1, kappa; hybridoma ATCC deposit). Kind of assay: competition ELISA (c-ELISA), specificity of antibody for halogenated deoxyuridines. Format: binding, mouse (SJL/Jax). The source says:
A competition enzyme-linked immunosorbent assay (c-ELISA) wa developed to assess the specificity of the antibody for halogenated deoxyuridines by the method of Stanker, et al. (1986) described previously. The competition ELISA data was normalized using 100% activity as the optical density in wells in which antibody was bound to the solid phase antigen (BSA-hapten) in the absence of any competitor. The test wells, each containing different amounts of competitor, were normalized to the 100% activity wells. Percent inhibition was calculated by subtracting the normalized percent binding activity from 100. A smaller I50 value indicates a higher relative affinity of the antibody for the compound. I50 values were estimated graphically from competition ELISA data. When 50% inhibition could not be attained, the value of the highest level of competitor tested is reported. Competition binding data for antibodies reactive with brominated nucleoside analogs are shown in FIG. 1, and the values represent the averages from at least 12 independent assays.
The concentration of IdUMP which causes a 50% binding inhibition to monoclonal antibody Br-3 is 100 times greater for IdUMP than with BrdUMP.
For orientation: An ELISA detects its analyte on a solid surface through an enzyme-linked reagent.

Consider `O=c1[nH]c(=O)n([C@H]2C[C@H](O)[C@@H](COP(=O)(O)O)O2)cc1F` [fluorinated deoxyuridine analog, 5-fluoro-2'-deoxyuridine-5-monophosphate], for which the “Br-3 binding (competition ELISA)” value (compared with the iodinated analog, FIG. 1) is listed as “comparable to that of the iodinated analog”. As to `Cc1cn([C@H]2C[C@H](O)[C@@H](COP(=O)(O)O)O2)c(=O)[nH]c1=O` [dTMP, deoxythymidine-5-monophosphate], under “50% inhibition not attained at the highest level of competitor tested, read-out: concentration for 50% binding inhibition (I50)”, the IC50 is over 100 µM. In the case of `O=c1[nH]c(=O)n([C@H]2C[C@H](O)[C@@H](COP(=O)(O)O)O2)cc1I` [IdUMP, 5-iodo-2'-deoxyuridine-5-monophosphate], the “concentration which causes a 50% binding inhibition (I50), relative to BrdUMP” value (I50 of IdUMP compared with I50 of BrdUMP, FIG. 1, averages of at least 12 assays) stood at 100 times.
